The record followed here is patent US6534289B1, “Nucleic acids encoding mGLuR/CaR chimera” (NPS Pharmaceuticals, Inc., priority 1995, dated 2003).

Each structure is given as a SMILES string.

The target of one assay is T1, human CaR (Homo sapiens, UniProt P41180).
T1 construct: expressed in transfected cells; host or cells: Xenopus laevis oocytes injected with in vitro transcribed RNA from phPCaR4.0
T1 sequence (P41180 20-1078): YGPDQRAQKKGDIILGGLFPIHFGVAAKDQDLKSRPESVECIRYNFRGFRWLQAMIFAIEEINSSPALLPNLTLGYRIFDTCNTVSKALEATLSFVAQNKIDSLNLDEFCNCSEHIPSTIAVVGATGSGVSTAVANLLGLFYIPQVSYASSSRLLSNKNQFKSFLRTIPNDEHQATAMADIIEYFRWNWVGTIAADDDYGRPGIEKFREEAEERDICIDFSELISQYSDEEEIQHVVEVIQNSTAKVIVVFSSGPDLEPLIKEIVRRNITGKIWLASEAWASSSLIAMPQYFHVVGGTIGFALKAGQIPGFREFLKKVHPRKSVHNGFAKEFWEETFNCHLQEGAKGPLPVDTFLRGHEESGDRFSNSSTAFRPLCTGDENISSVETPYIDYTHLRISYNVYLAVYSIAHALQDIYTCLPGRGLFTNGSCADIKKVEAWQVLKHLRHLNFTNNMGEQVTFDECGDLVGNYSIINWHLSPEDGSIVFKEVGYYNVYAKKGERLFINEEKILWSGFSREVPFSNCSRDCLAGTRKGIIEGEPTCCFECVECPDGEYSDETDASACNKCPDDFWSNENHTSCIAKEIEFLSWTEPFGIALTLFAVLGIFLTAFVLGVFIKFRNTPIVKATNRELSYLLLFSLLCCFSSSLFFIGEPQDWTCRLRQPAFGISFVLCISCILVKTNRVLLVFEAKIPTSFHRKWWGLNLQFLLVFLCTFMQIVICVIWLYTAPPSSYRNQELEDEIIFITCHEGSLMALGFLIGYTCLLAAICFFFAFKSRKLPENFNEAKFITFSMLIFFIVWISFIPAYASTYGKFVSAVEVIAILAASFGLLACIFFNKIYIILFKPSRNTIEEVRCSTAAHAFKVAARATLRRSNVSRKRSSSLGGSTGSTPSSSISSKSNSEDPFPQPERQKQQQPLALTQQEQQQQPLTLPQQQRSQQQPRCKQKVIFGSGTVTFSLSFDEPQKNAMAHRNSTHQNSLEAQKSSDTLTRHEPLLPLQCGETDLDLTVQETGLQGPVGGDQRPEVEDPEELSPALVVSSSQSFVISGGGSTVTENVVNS
The assay is described as follows: Xenopus oocyte voltage clamp, Cl− currents, CaR. The format is cell-based.

For assay [1], the system named is HEK293 cells expressing pCEPCaR/R1. The assay is described as follows: HEK293/pCEPCaR/R1 Fura assay. It is filed as cell-based, human. Conditions: fura-2 loaded stably transfected HEK293 cells, FIG. 9. On the procedure:
The DNA from plasmid pCaR/R1 was digested and cloned into the commercially available episomal mammalian expression vector, pCEP4 (Invitrogen), using the restriction enzymes Kpn I and Not I. The ligation products were transfected into DH5a cells which had been made competent for DNA transformation. […] A clone was selected from the colonies which grew. This clone, pCEPCaR/R1 was characterized by restriction enzyme digestion.
Human embryonic kidney cells (293, ATCC, CRL 1573) were grown in a routine manner. Cells were plated in 10 cm cell-culture plates in Dulbecco's modified Eagle's medium (D-MEM) containing 10% fetal calf serum (FCS) and 1×Penicillin-Streptomycin (PS, Life Technologies) so that they would be ˜70% confluent after an overnight incubation. […]
Measurements of intracellular calcium release in response to increases in extracellular calcium is quantitated using the Fura assay (Parks et al. 1989). […] Measurements of fluorescence are performed at 37° C. with constant stirring using a custom-built spectrofluorimeter (Biomedical Instrumentation Group, University of Pennsylvania). […] To calibrate fluorescence signals, digitonin (Sigma, St. Louis, Mo.; catalog # D 5628; 50 μg/ml, final) is added to obtain Fmax, and the apparent Fmin is determined by adding EGTA (10 mM, final) and Tris base (pH ˜10, final). […]

For the next assay, the target named is T2, mGluR1/CaR (UniProt P23385+P41180).
T2 construct: expressed in transfected cells; host or cells: Xenopus laevis oocytes injected with in vitro transcribed RNA
The assay is described as follows: Xenopus oocyte voltage clamp, Cl− currents, mGluR1/CaR chimera. The format is cell-based, rat mGluR1 / human calcium receptor. Conditions: FIG. 6.

T2 sequence (P23385+P41180 fused): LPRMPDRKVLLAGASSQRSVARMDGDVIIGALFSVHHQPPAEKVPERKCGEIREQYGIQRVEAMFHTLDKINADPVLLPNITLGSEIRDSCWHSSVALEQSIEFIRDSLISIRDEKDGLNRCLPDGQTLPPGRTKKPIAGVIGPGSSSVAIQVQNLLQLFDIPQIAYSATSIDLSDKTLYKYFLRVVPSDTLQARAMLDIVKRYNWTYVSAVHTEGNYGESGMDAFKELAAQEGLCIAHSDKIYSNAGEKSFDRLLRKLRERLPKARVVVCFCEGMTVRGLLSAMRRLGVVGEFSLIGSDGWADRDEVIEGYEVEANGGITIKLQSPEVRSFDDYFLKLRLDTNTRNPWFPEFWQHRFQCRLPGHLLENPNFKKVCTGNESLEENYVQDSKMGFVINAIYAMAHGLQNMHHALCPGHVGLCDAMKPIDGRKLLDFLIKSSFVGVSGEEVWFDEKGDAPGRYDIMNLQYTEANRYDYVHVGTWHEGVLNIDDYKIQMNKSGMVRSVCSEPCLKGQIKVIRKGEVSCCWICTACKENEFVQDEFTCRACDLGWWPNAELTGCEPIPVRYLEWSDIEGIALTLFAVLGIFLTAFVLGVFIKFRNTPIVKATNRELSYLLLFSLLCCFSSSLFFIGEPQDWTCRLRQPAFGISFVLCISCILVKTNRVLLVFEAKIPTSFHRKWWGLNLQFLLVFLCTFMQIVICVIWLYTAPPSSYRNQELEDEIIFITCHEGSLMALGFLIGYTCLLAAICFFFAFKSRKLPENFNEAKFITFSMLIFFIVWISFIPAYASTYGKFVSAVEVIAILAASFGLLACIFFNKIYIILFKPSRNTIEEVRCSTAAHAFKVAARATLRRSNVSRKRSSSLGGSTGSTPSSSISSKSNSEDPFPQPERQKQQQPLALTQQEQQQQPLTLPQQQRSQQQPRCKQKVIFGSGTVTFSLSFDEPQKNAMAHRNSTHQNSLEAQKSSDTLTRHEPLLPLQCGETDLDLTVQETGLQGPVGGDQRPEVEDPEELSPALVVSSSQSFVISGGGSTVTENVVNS

With `N[C@@H](CCC(=O)O)C(=O)O` [l-glutamate], at human CaR (Xenopus oocytes injected with human CaR RNA, FIG. 8B), the “Cl− current” value was “elicits oscillatory increases in Cl− current”.

For the molecule `[Ca+2]` [calcium], the “activation of CaR, response amplitudes (Cl− currents in response to increases in intracellular Ca^2+)” value on human CaR (Xenopus oocyte, increasing extracellular calcium, FIG. 7) is “activation”. Besides, in assay [1], the intracellular calcium entry is given as “increases in intracellular calcium”.

For the molecule `N[C@@H](Cn1oc(=O)[nH]c1=O)C(=O)O` [quisqualate], the “activation of mGluR1/CaR as measured by Cl− currents generated in response to the release of intracellular Ca^2+” value on mGluR1/CaR was “activation”.
